Assay [1] has as its target stromelysin (Homo sapiens, UniProt P08254). Briefly: Assay of Stromelysin Inhibition Activity (fluorogenic substrate hydrolysis). It is filed as biochemical. Particulars: for inhibition at 10 µM: read-out: percent inhibition of stromelysin. Here is the method: (§1) Stromelysin was first activated by trypsin. This was done by preparing a reaction mixture in B-150 (B-150 consists of 150 mM NaCl, 20 mM Tris at pH 7.8 and 0.02% sodium azide) containing a final concentration of 4 μg/mL trypsin, 1.48 μg/mL of stromelysin, and 3.15 mM CaCl2. The reaction was incubated for 30 minutes at 37° C. and then quenched by adding soybean trypsin inhibitor to a final concentration of 43.6 μg/mL. ZnCl2 was added to the reaction mixture for a total concentration of 0.24 μM.
(§2) Following preparation of the solution of activated stromelysin, assay solutions were prepared for each inhibitor being tested. A control was also prepared. First, […] of activated stromelysin (about 45 μL from the solution of activated stromelysin) were aliquotted per assay tube. A 2.5 mM solution in 100% dimethyl sulfoxide (DMSO) was prepared for each inhibitor being tested and 1 μL from each inhibitor solution was added to one of the assay tubes. In addition, 1 μL of 100% DMSO was added to the control assay tube. All assay tubes were then pre-incubated for 5 minutes.
(§3) 5 μL of a previously prepared 50 μM solution of substrate in 15% DMSO were added to each assay tube. The substrate was a methoxycumarin developed by Knight et al. FEBS Lett. 296:263-66 (1992). The tubes were then incubated for 60 minutes, at which time the reaction was stopped with the addition of 750 μL of 0.1M NaAc pH 4.0 buffer.
(§4) Substrate hydrolysis was assessed by fluorescence using a slit width of 10:10, excitation at 328 nm and emission at 393 nm. The results of these assays are listed in Table I as percent inhibition at 10 μM of the bile acid provided compound tested or as the IC50.

Assay [2] concerns chondrocytes. Briefly: Chondrocyte Cell Culture Matrix Breakdown Assay (35S release, rhIL-1α stimulated). It is filed as cell-based, calf. To be noted: Bos taurus, Chondrocyte, read-out: percent inhibition, Cell Culture. Here is the method:
A cell culture assay was used to measure the ability of compounds to slow the degradation of the extracellular matrix by a metalloproteinase. This assay measured the amount ^35 S released from chondrocytes grown in a media with ^35 S labeled sodium sulfate. The cell culture assay was carried out as follows:
Two or three 1 to 3 week old calf joints were obtained from an abattoir. The proximal end of the shank was at about 4-5" long to facilitate immobilization in the holder. The joint was kept cool and transported on ice. The exterior of the intact joints was washed well with a suitable anti-microbial soap, rinsed clean with warm water, rinsed in betadine and then finally rinsed with 70% ethanol. Up to this point all steps were done in a manner to ensure that the joint was kept as clean as possible. All subsequent steps were performed in a sterile field (i.e., in a Edgeguard laminar flow tissue culture hood). The joint was immobilized and the synovial fluid was aspirated with a needle and syringe. The joint was then cut open to expose the articular cartilage using a #21 scalpel. Using locking hemostats, forceps and a #15 scalpel, the cartilage was excised in full thickness pieces. Care was taken not to cut too deep because bleeding would have occurred if the subchondral bone, was penetrated. The cartilage pieces were placed into a 50 mL centrifuge tube containing 25 mL of Delbecco's phosphate buffered saline (D-PBS) supplemented with 1% antibiotic solution (penicillin, streptomycin and fungizone; GIBCO/BRL). The slices from each joint were then placed into separate 50 mL centrifuge tubes. The D-PBS was decanted and replaced with 25 mL of fresh D-PBS supplemented with antibiotics and subsequently agitated gently.
The cartilage pieces were transferred to a fresh 50 mL centrifuge tube and rinsed once more with 25 mL of D-PBS minus antibiotics. An enzymatic digestion solution containing 1 mg/mL of hyaluronidase in serum-free 1:1 DMEM/Ham's F-12 (DMEM/F12) was prepared. This solution was filter sterilized with […] Milex--GV filter and kept on ice until ready to use. The cartilage pieces were digested with approximately 5 mL of hyaluronidase solution per joint for 2×15 minutes at 37° C. in the 50 mL centrifuge tube with gentle agitation at the 15 minute mark. This procedure removed residual hyaluronic acid from the surface of the chips. The enzymatic digestion solution was then aspirated and the cartilage pieces were rinsed with 25 mL of D-PBS.
A second enzymatic digestion solution containing 2.5 mg trypsin and 2 mg collagenase P per mL serum-free DMEM/F12 was prepared. This solution was also filter sterilized with a […] Millex--GV filter and kept on ice until ready to use. The cartilage pieces were digested with approximately 5 mL of trypsin: collagenase solution per joint for 2×15 minutes at 37° C. in the 50 mL centrifuge tube with gentle agitation at the 15 minute mark. This procedure removed the synovial fibroblasts and any adherent connective tissue from the surface of the chips. The enzymatic digestion solution was then carefully removed and saved and the cartilage pieces were rinsed with 25 mL of D-PBS.
A third enzymatic solution containing 2 mgs of collagenase P (BMB) per mL serum-free DMEM/F12 was prepared. This solution was filter sterilized with a […] Millex--GV filter and kept on ice until ready to use. The pre-digested cartilage pieces were finally digested with approximately 20 mL of enzymatic digestion solution per joint for 5-6 hours at 37° C. in a Bellco stirring digestion flask, at which point the cartilage was fully digested away.
The enzymes in the synovial fibroblast and chondrocyte digest were neutralized by addition of an equal volume of DMEM/F12 supplemented with 5% fetal bovine serum. Fibroblasts were plated in DMEM at a cellular density of 6.6×10^3 cells per cm^2. […]

Assay [3] deals with collagenase. Briefly: Assay of Collagenase Inhibition Activity. It is filed as biochemical. To be noted: at 10 μM of compound; 45 minutes at 37° C. On the procedure: as §1, §2, §3, §4
The assay procedure for collagenase was the same as described in Example 13 for stromelysin except that the trypsin activation was performed for 45 minutes. In addition, the incubation of the assay tubes at 37° C. was only for 45 minutes, and the final enzyme concentration is 6 nm. The results of these assays are provided in Table I as percent inhibition at 10 μM of the compound tested.

The subject of assay [4] is bovine cartilage explants. Briefly: Bovine Cartilage Explant Assay (35S-GAG release, rhIL-1α stimulated; tissue culture). It is filed as cell-based. Particulars: Bos taurus; at 50 μM; rhIL-1α 5 ng/mL; 3-4 days; read-out: percent inhibition of extracellular matrix damage, Tissue Culture. From the text:
A tissue culture assay was used to measure the ability of the compounds of the present invention to slow the degradation of the extracellular matrix by metalloproteinases. This assay measured the amount of ^35 S-glycosaminoglycan (^35 S-GAG) released from labeled bovine cartilage explants.
Knee joints from a 1 to 3 week old calf were obtained immediately after sacrifice from the Abattoir and then transported on ice. The intact joints were washed well with tap water and soaked in 50% (v/v) Povidine iodine solution, obtained from Burre National, Inc., Baltimore, Md. All subsequent steps were performed in a laminar flow tissue culture hood using standard sterile technique. The joint was immobilized in a shank holder and the joint capsule was cut open to expose the articular cartilage. Cartilage explant plugs, approximately 15 mg wet weight, were removed from the flat articulating surfaces in the lower-most region of the knee joint using a sterile steel cork-borer and collected in a 250 mL roller bottle containing about 100 mL fresh Delbecco's minimum essential medium (DMEM), obtained from Gibco BRC, Life Technologies, Gaithersburg, Md., containing 4.5 g/1 (D)-glucose and (L)-glutamine, without sodium pyruvate. The fresh media also contained enough Hepes buffer and sodium bicarbonate such that the pH was about 7.4. The media was then further supplemented just before use with 100 units Penicillin, 100 μg Streptomycin, and 50 μg (L)-ascorbic acid per mL of medium.
Once collected, the explant plugs were washed four times with 50 mL fresh DMEM. The plugs were then placed in the incubator for a minimum of 1 hour to equilibrate, before proceeding to make disks from the articulating surface of each plug. A 1 mm thick disk was sliced from individual plugs from the end that was the articulating surface of the joint. The plug was held steady in the sterile template (4 mm diameter×1.5 mm deep) using sterile forceps. A scalpel blade was used to carefully slice off the disk. Only the superficial articulating surface responded well in culture.
Individual disks obtained were transferred to a tissue culture flask containing about 100 mL fresh media. The flask containing the disks was placed in an incubator at 37° C. (with 5% CO2, 95% air) and allowed to equilibrate overnight and at least one additional day before labeling. When ready to label, the old media was replaced with 50 mL fresh media containing about 500 μCi ^35 S-Sodium Sulfate. The plugs were labeled in bulk for about 48 hours. The next morning, the "hot" media was removed and replaced with fresh "cold" media. The disks were again allowed to equilibrate overnight before being used for actual experiments.
The media in which the disks were stored was changed immediately prior to performing the assay. The disks were then returned to the incubator until the test media and the two control media had been prepared. The test media consisted of a bile acid or bile acid derivative (50 μM) being tested for its ability to inhibit extracellular matrix degradation and concomitant recombinant human Interleukin rhIL-1α (5 ng/mL) in fresh DMEM solution. The control media were identical to the test media, except that the first control media lacked rhIL-1α and the second control media lacked an inhibitor, i.e. a bile acid or bile acid derivative. 250 μL of each of the test and control media were transferred to separate 96-well TC plates. Flamed forceps were used to transfer a disk from the incubator to each 96-well TC plates that had been filled with either the test media or one of the two control media.
The TC plates were then placed in the incubator and cultured for 3-4 days (initial incubation with rhIL-1α alpha takes at least 3 days to stimulate endogenous metalloproteinases). A 50 μL aliquot of media from each TC plate was saved and counted. The rest of the media was removed with a suction device.
The cartilage disks from each TC plate were also saved for counting. […]

[5] abbreviates: at 50 μM, rhIL-1α 1 ng/ml, 22-24 hours.

Like-named read-outs stand apart in the source and are kept apart here.

Chain of stromelysin (P08254 100-477): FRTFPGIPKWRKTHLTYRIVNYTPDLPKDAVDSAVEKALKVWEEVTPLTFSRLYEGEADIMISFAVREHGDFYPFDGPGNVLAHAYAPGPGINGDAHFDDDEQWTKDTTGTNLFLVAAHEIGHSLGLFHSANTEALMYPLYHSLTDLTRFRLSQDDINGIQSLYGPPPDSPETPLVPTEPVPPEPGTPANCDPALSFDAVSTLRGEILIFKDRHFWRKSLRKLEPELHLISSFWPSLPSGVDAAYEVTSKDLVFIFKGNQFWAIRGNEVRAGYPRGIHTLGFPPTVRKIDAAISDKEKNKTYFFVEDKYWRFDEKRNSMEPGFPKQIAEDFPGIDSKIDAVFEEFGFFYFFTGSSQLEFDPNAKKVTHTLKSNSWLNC

Regarding `C[C@H](CCC(=O)O)[C@H]1CC[C@H]2[C@@H]3CC[C@@H]4C[C@H](O)CC[C@]4(C)[C@H]3C[C@H](O)[C@]12C` [Compound 2, deoxycholic acid, reference compound], in assay [1], the inhibition at 10 µM worked out at 23%. Besides, the inhibition at 50 µM in assay [2] (setting [5]) was -14%.

With `C[C@H](CCC(=O)O)[C@H]1CC[C@H]2[C@@H]3[C@@H](O)C[C@@H]4C[C@H](O)CC[C@]4(C)[C@H]3CC[C@]12C` [Compound 3, ursodeoxycholic acid, reference compound], the inhibition at 10 µM in assay [1] (at 10 μM of compound) was determined as 21%. In addition, the inhibition at 50 µM in assay [2] (setting [5]) amounted to 5%.

For the compound `C[C@H](CCC(=O)O)[C@H]1CC[C@H]2[C@@H]3C[C@H](O)[C@@H]4C[C@H](O)CC[C@]4(C)[C@H]3CC[C@]12C` [Compound 4, hyodeoxycholic acid, reference compound], in assay [1] (at 10 μM of compound), the inhibition at 10 µM was 18%. Moreover, the inhibition at 50 µM in assay [2] (setting [5]) amounted to 7%.

In the case of `C[C@H](CCC(=O)NCCC[N+](C)(C)CC(O)CS(=O)(=O)[O-])[C@H]1CC[C@H]2[C@@H]3[C@H](O)C[C@@H]4C[C@H](O)CC[C@]4(C)[C@H]3C[C@H](O)[C@]12C` (stereo partly drawn) [Compound 5, 3-[(3-cholamidopropyl)dimethylammonio]-2-hydroxy-1-propanesulfonate, reference compound], the inhibition at 10 µM in assay [1] is 15%. In assay [2], the inhibition at 50 µM stood at 35%.

`C[C@H](CCC(=O)O)[C@H]1CC[C@H]2[C@@H]3[C@H](O)C[C@@H]4C[C@H](O)CC[C@]4(C)[C@H]3CC[C@]12C` [Compound 6, Chenodeoxycholic acid, reference compound]: the “percent inhibition of collagenase” value in assay [3] turned out to be 6%. Also, the inhibition at 50 µM in assay [4] is 23%.

For the compound `C[C@H](CCC(=O)NO)[C@H]1CC[C@H]2[C@@H]3[C@H](O)C[C@@H]4C[C@H](O)CC[C@]4(C)[C@H]3CC[C@]12C` [Compound 14, Chenodeoxycholyhydroxamic Acid], in assay [3], the “percent inhibition of collagenase” value came out at 19%. The inhibition at 50 µM in assay [2] (setting [5]) worked out at 77%.

`C[C@H](CCC(=O)N[C@H](Cc1ccccc1)C(=O)NO)[C@H]1CC[C@H]2[C@@H]3CC[C@@H]4C[C@H](O)CC[C@]4(C)[C@H]3CC[C@]12C` [Compound 22, Lithocholyl-(D)-Phenylalanine Hydroxamic Acid]: the IC50 in assay [1] (60 minutes incubation) turned out to be 1200 nM. In assay [2] (setting [5]), the inhibition at 50 µM is 5%.

For the compound `C[C@H](CCC(=O)NO)[C@H]1CC[C@H]2[C@@H]3[C@H](O)C[C@@H]4C[C@H](O)CC[C@]4(C)[C@H]3C[C@H](O)[C@]12C` [Compound 23, Cholylhydroxamic Acid], the inhibition at 10 µM in assay [1] (at 10 μM of compound) is 12%. Besides, the inhibition at 50 µM in assay [2] (setting [5]) was -20%.

For the compound `C[C@H](CCC(=O)N[C@@H](CCc1ccccc1)C(=O)NO)[C@H]1CC[C@H]2[C@@H]3CC[C@@H]4C[C@H](O)CC[C@]4(C)[C@H]3CC[C@]12C` [Compound 27, Lithocholyl-(L)-homophenylalanine Hydroxamic Acid], the inhibition at 10 µM in assay [1] (at 10 μM of compound) was determined as 90%.

As to `C[C@H](CCC(=O)N[C@H](CCc1ccccc1)C(=O)NO)[C@H]1CC[C@H]2[C@@H]3CC[C@@H]4C[C@H](O)CC[C@]4(C)[C@H]3CC[C@]12C` [Compound 28, Lithocholyl-(D)-homophenylalanine Hydroxamic Acid], the inhibition at 10 µM in assay [1] (at 10 μM of compound) came to 92%.

As a reminder, the inhibition is the change of the read-out against control, counted positive when it falls. The term IC50 denotes the concentration needed to halve the response being measured.

These data come from US5646316A, “Bile acid inhibitors of metalloproteinase enzymes” (OsteoArthritis Sciences, Inc., priority 1995, dated 1997).
